Source: BigSolDB 2.1

c1ccc2c(c1)OP1(=NP3(=NP4(=N1)Oc1ccccc1O4)Oc1ccccc1O3)O2
Details	solubility (mole fraction)
in 1,2-dichloroethane, 293.25 K	0.000409
in 1,2-dichloroethane, 298.35 K	0.000585
in 1,2-dichloroethane, 303.15 K	0.000765
in 1,2-dichloroethane, 308.15 K	0.00107
in 1,2-dichloroethane, 313.25 K	0.0015
in 1,2-dichloroethane, 318.55 K	0.00195
in 1,2-dichloroethane, 323.15 K	0.00252
in 1,2-dichloroethane, 328.55 K	0.00324
in 1,2-dichloroethane, 333.15 K	0.00419
in 1,2-dichloroethane, 338.25 K	0.00582
in THF, 291.95 K	0.000921
in THF, 298.25 K	0.00112
in THF, 303.65 K	0.00137
in THF, 307.95 K	0.00159
in THF, 313.25 K	0.00188
in THF, 318.35 K	0.00218
in THF, 323.15 K	0.0025
in THF, 328.25 K	0.00292
in acetone, 294.35 K	0.00025
in acetone, 298.35 K	0.000323
in acetone, 303.45 K	0.000429
in acetone, 308.65 K	0.000588
in acetone, 313.35 K	0.000759
in acetone, 318.15 K	0.000977
in acetone, 323.25 K	0.00126
in acetonitrile, 293.25 K	0.000116
in acetonitrile, 298.15 K	0.000217
in acetonitrile, 303.25 K	0.000289
in acetonitrile, 308.15 K	0.000369
in acetonitrile, 313.55 K	0.000471
in acetonitrile, 318.25 K	0.000586
in acetonitrile, 323.15 K	0.000743
in acetonitrile, 328.35 K	0.000922
in acetonitrile, 333.15 K	0.00115
in chloroform, 298.15 K	0.00214
in chloroform, 303.05 K	0.0027
in chloroform, 308.05 K	0.00334
in chloroform, 313.65 K	0.00427
in chloroform, 318.55 K	0.00519
in chloroform, 323.05 K	0.00628
in chloroform, 328.75 K	0.00771
in dichloromethane, 288.15 K	0.00108
in dichloromethane, 291.55 K	0.00127
in dichloromethane, 294.45 K	0.00145
in dichloromethane, 298.35 K	0.00175
in dichloromethane, 303.45 K	0.00219
in dichloromethane, 308.65 K	0.00276
in ethanol, 293.95 K	9.52e-05
in ethanol, 298.05 K	0.000117
in ethanol, 303.25 K	0.000153
in ethanol, 308.35 K	0.000194
in ethanol, 313.35 K	0.000234
in ethanol, 318.15 K	0.000308
in ethanol, 322.95 K	0.00038
in ethanol, 328.15 K	0.000451
in ethanol, 332.45 K	0.000562
in ethyl acetate, 298.15 K	0.000419
in ethyl acetate, 303.35 K	0.000563
in ethyl acetate, 308.25 K	0.000675
in ethyl acetate, 313.45 K	0.000856
in ethyl acetate, 318.25 K	0.00107
in ethyl acetate, 323.15 K	0.00133
in ethyl acetate, 328.15 K	0.00166
in ethyl acetate, 332.45 K	0.00188
in toluene, 293.15 K	0.000667
in toluene, 298.25 K	0.000868
in toluene, 303.15 K	0.00108
in toluene, 308.35 K	0.00137
in toluene, 313.55 K	0.0017
in toluene, 318.25 K	0.00205
in toluene, 323.15 K	0.00249
in toluene, 328.35 K	0.00305
in toluene, 333.15 K	0.00367
in toluene, 338.25 K	0.00442
